Laboratory results published in patent publication US8735426B2, “Vanilloid receptor ligands, pharmaceutical compositions containing them, process for making them and use thereof for treating pain and other conditions” (Gruenenthal GmbH, priority 2007, dated 2014).
pIC50, pKi: −log10 of the molar value.

Legend:
Type in all cases: cell-based
[1] = molecular target: T1, vanilloid receptor 1 (VR1/TRPV1) (Rattus norvegicus, UniProt O35433); assay: Functional FLIPR Ca2+ influx assay on vanilloid receptor 1, capsaicin stimulus (Pharmacological Method I); settings: for pKi: capsaicin stimulus
T1 construct: The vertebral column is removed from decapitated rats; from tissue; host or cells: primary cells from rat dorsal root ganglia (DRG)

[2] = molecular target: vanilloid receptor 1 (VR1/TRPV1-Receptor) (Homo sapiens, UniProt Q8NER1); assay: VR1 functional assay following pH-stimulus
vanilloid receptor (VR1) [3] = molecular target: T2, vanilloid receptor (VR1) (Homo sapiens, UniProt Q8NER1); assay: Functional FLIPR Ca2+ influx assay in CHO-K1 cells transfected with the VR1 gene, capsaicin stimulus (Pharmacological Method II); settings: read-out: inhibition (in percent), Human Capsaicin
T2 construct: expressed in transfected cells; host or cells: CHO-K1 cells (ECACC), stably transfected

vanilloid receptor (VR1) [4] = molecular target: T2, vanilloid receptor (VR1); assay: as above
From the text: The agonistic or antagonistic action of the substances to be examined on the vanilloid receptor (VR1) can alternatively be determined by the following assay. According to this assay the Ca^2+ influx through the canal is quantified with the aid of a Ca^2+-sensitive dye (type Fluo-4, Molecular Probes, Europe BV, Leiden, Netherlands) in a fluorescent imaging plate reader (FLIPR, Molecular Devices, Sunnyvale, USA).
Chinese hamster ovary cells (CHO-K1 cells, European Collection of Cell Cultures (ECACC) UK) are stably transfected with the VR1 gene. For carrying out functional investigations, these cells are plated on poly-D-lysine-coated, black 96-well plates with a clear bottom (BD Biosciences, Heidelberg, Germany) in a density of 25,000 cells/well. The cells are incubated overnight at 37° C. and 5% CO2 in a culture medium (Nutrient Mixture ‘am’s F12, 10% by volume of FCS (fetal calf serum), 18 μg/ml of L-proline). On the following day the cells are incubated with Fluo-4 (Fluo-4 2 μM, Pluronic F127 0.01 by volume, Molecular Probes in HBSS (Hank's buffered saline solution), Gibco Invitrogen GmbH, Karlsruhe, Germany) for 30 minutes at 37° C. The plates are then washed 3 times with HBSS buffer and, after another incubation over a period of 15 minutes at room temperature, are used in the FLIPR for Ca^2+ measurement. The Ca^2+-dependent fluorescence is measured prior to and following the addition of the substances being examined (wavelength λex=488 nm, λem=540 nm). Quantification is carried out by measuring the highest fluorescence intensity (PC, fluorescence counts) over time.
The FLIPR protocol consists of 2 substance additions. First of all, the substances to be tested (10 μM) are pipetted onto the cells and the Ca^2+ influx is compared with the control (capsaicin 10 μM) (percentage activation based on the Ca^2+ signal following addition of 10 μM of capsaicin). Following incubation over a period of 5 minutes 100 nM of capsaicin are applied and the influx of Ca^2+ is likewise determined.
Desensitizing agonists and antagonists led to a suppression of the Ca^2+ influx. The percentage inhibition compared with the maximum attainable inhibition using 10 μM of capsaicin is calculated.
Based on the percentage displacement effected by different concentrations of the compounds of the general formula I to be tested, IC50 inhibition concentrations are calculated which cause 50 percent displacement of capsaicin. Conversion using the Cheng Prusoff equation gave Ki values for the test substances (Cheng, Prusoff; Bioch. Pharmacol. 22, 3099-3108, 1973).

[5] = read-out: inhibition (in percent), Human following pH-stimulus
[6] = capsaicin, read-out: inhibition (in percent), Rat Capsaicin

T1 sequence (O35433 whole entry): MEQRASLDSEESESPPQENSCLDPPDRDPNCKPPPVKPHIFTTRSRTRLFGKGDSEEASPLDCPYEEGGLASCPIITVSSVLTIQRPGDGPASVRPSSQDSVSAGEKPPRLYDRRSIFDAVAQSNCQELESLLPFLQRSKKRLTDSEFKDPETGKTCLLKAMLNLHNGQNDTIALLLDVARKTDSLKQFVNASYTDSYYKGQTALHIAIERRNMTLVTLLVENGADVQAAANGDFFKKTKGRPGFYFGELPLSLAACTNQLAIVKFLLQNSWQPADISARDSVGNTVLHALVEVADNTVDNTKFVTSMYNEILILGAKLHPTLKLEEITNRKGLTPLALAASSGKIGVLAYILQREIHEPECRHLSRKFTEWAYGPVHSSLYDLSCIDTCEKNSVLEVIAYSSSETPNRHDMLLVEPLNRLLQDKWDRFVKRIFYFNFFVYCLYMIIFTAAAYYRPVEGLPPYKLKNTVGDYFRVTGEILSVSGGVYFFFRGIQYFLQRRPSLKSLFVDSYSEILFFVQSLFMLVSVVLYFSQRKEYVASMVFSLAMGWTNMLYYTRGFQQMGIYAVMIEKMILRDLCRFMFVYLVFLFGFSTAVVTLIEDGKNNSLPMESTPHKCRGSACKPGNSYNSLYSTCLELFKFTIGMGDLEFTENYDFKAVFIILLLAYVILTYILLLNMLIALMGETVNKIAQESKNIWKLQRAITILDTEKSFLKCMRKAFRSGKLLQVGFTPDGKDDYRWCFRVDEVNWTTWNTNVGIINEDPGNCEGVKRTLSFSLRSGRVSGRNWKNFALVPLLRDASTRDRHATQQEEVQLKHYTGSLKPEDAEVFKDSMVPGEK
T2 sequence (Q8NER1 whole entry): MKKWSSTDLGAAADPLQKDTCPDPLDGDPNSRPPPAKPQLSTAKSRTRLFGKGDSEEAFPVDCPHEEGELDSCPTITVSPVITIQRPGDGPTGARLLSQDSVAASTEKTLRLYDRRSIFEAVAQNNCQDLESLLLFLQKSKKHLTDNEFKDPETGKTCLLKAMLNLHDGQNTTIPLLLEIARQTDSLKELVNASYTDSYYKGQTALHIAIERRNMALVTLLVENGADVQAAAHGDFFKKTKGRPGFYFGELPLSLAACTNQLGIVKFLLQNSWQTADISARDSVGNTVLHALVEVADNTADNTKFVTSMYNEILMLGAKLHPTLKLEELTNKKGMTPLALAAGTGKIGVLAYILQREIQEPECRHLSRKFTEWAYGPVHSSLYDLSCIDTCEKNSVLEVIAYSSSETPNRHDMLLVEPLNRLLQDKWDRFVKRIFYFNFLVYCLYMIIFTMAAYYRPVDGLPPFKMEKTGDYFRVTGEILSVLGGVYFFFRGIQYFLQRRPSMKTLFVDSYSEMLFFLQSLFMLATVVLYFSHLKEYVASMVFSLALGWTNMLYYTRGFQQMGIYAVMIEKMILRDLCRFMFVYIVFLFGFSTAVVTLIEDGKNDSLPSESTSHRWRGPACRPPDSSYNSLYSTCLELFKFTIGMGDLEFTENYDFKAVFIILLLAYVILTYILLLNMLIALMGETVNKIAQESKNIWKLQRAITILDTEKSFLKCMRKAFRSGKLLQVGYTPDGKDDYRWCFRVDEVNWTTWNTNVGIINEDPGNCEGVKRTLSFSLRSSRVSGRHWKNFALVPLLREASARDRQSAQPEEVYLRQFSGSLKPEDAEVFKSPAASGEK
vanilloid receptor 1 (VR1/TRPV1-Receptor), sequence (Q8NER1 whole entry): as above

Structure (SMILES)	pKi [1]	pKi (vanilloid receptor (VR1) [4])	pIC50 [2]	further results
CC1CCN(c2nc(C(F)(F)F)ccc2CNC(=O)C(c2ccccc2)c2ccc(NS(C)(=O)=O)c(F)c2)CC1 (stereo not shown) [Example 3, 2-(3-Fluoro-4-(methylsulfonamido)phenyl)-N-((2-(4-methylpiperidin-1-yl)-6-(trifluoromethyl)pyridin-3-yl)methyl)-2-phenylacetamide]	–	8.89	7.10	–
CC1CCN(c2nc(C(F)(F)F)ccc2CNC(=O)C(c2cccc(F)c2)c2ccc(NS(C)(=O)=O)c(F)c2)CC1 (stereo not shown) [Example 34, 2-(3-Fluoro-4-(methylsulfonamido)phenyl)-2-(3-fluorophenyl)-N-((2-(4-methylpiperidin-1-yl)-6-(trifluoromethyl)pyridin-3-yl)methyl)acetamide]	–	8.62	7.67	–
Cc1ccc(CC(C(=O)NCc2ccc(C(F)(F)F)nc2N2CCC(C)CC2)c2ccc(NS(C)(=O)=O)c(F)c2)cc1 (stereo not shown) [Example 77, 2-(3-Fluoro-4-(methylsulfonamido)phenyl)-N-((2-(4-methylpiperidin-1-yl)-6-(trifluoromethyl)pyridin-3-yl)methyl)-3-p-tolylpropanamide]	6.80	–	–	inhibition at 1 µM (vanilloid receptor (VR1) [3]): 0%; inhibition at 5 µM (vanilloid receptor (VR1) [3]): 17%
CC1CCN(c2nc(C(F)(F)F)ccc2CNC(=O)C(C)(C)c2ccc(NS(C)(=O)=O)c(F)c2)CC1 [Example 5, 2-(3-Fluoro-4-(methylsulfonamido)phenyl)-2-methyl-N-((2-(4-methylpiperidin-1-yl)-6-(trifluoromethyl)pyridin-3-yl)methyl)propanamide]	7.34	7.31	6.05	–
Cc1ccc(C(C(=O)NCc2ccc(C(F)(F)F)nc2N2CCC(C)CC2)c2ccc(NS(C)(=O)=O)c(F)c2)cc1 (stereo not shown) [Example 42, 2-(3-Fluoro-4-(methylsulfonamido)phenyl)-N-((2-(4-methylpiperidin-1-yl)-6-(trifluoromethyl)pyridin-3-yl)methyl)-2-p-tolylacetamide]	8.20	8.96	7.50	–
CCC(C)(C(=O)NCc1ccc(C(F)(F)F)nc1N1CCC(C)CC1)c1ccc(NS(C)(=O)=O)c(F)c1 (stereo not shown) [Example 7, 2-(3-Fluoro-4-(methylsulfonamido)phenyl)-2-methyl-N-((2-(4-methylpiperidin-1-yl)-6-(trifluoromethyl)pyridin-3-yl)methyl)butanamide]	7.42	6.91	–	inhibition at 1 µM [2, 5]: 0%; inhibition at 5 µM [2, 5]: 15%; inhibition at 10 µM [2, 5]: 18%
CC1CCN(c2nc(C(F)(F)F)ccc2CNC(=O)C2(c3ccc(NS(C)(=O)=O)c(F)c3)CCCC2)CC1 [Example 13, 1-(3-Fluoro-4-(methylsulfonamido)phenyl)-N-((2-(4-methylpiperidin-1-yl)-6-(trifluoromethyl)pyridin-3-yl)methyl)cyclopentanecarboxamide]	–	–	–	inhibition at 0.1 µM ([1]; @ 0.1 μM, capsaicin, read-out: inhibition (in percent), Rat Capsaicin): 0%; inhibition at 1 µM [1, 6]: 27%; inhibition at 5 µM [1, 6]: 43%; inhibition at 1 µM (vanilloid receptor (VR1) [3]): 0%; inhibition at 5 µM (vanilloid receptor (VR1) [3]): 25%
CC1CCN(c2nc(C(F)(F)F)ccc2CNC(=O)C(c2ccc(F)cc2)c2ccc(NS(C)(=O)=O)c(F)c2)CC1 (stereo not shown) [Example 35, 2-(3-Fluoro-4-(methylsulfonamido)phenyl)-2-(4-fluorophenyl)-N-((2-(4-methylpiperidin-1-yl)-6-(trifluoromethyl)pyridin-3-yl)methyl)acetamide]	7.87	8.47	6.61	–
CS(=O)(=O)Nc1ccc(C2(C(=O)NCc3ccc(C(F)(F)F)nc3SC3CCCCC3)CCCCC2)cc1F [Example 16, N-((2-(Cyclohexylthio)-6-(trifluoromethyl)pyridin-3-yl)methyl)-1-(3-fluoro-4-(methylsulfonamido)phenyl)cyclohexanecarboxamide]	–	–	–	inhibition at 1 µM [1, 6]: 15%; inhibition at 5 µM [1, 6]: 69%
Cc1ccccc1C(C(=O)NCc1ccc(C(F)(F)F)nc1N1CCC(C)CC1)c1ccc(NS(C)(=O)=O)c(F)c1 (stereo not shown) [Example 40, 2-(3-Fluoro-4-(methylsulfonamido)phenyl)-N-((2-(4-methylpiperidin-1-yl)-6-(trifluoromethyl)pyridin-3-yl)methyl)-2-o-tolylacetamide]	6.96	7.37	5.50	–
Cc1cccc(C(C(=O)NCc2ccc(C(F)(F)F)nc2N2CCC(C)CC2)c2ccc(NS(C)(=O)=O)c(F)c2)c1 (stereo not shown) [Example 41, 2-(3-Fluoro-4-(methylsulfonamido)phenyl)-N-((2-(4-methylpiperidin-1-yl)-6-(trifluoromethyl)pyridin-3-yl)methyl)-2-m-tolylacetamide]	8.74	10.00	7.06	–

The next lines start with results.

pKi [1]	pKi (vanilloid receptor (VR1) [4])	pIC50 [2]	Structure (SMILES)	further results
6.93	–	–	CS(=O)(=O)Nc1ccc(C2(C(=O)NCc3ccc(C(F)(F)F)nc3SC3CCCCC3)CCCC2)cc1F [Example 14, N-((2-(Cyclohexylthio)-6-(trifluoromethyl)pyridin-3-yl)methyl)-1-(3-fluoro-4-(methylsulfonamido)phenyl)cyclopentanecarboxamide]	inhibition at 5 µM [2, 5]: 4%; inhibition at 10 µM [2, 5]: 33%; inhibition at 0.1 µM (vanilloid receptor (VR1) [3]; @ 0.1 μM): 0%; inhibition at 1 µM (vanilloid receptor (VR1) [3]): 20%; inhibition at 5 µM (vanilloid receptor (VR1) [3]): 77%
7.50	6.99	–	CS(=O)(=O)Nc1ccc(C(C(=O)NCc2ccc(C(F)(F)F)nc2SC2CCCCC2)C2CCCC2)cc1F (stereo not shown) [Example 22, N-((2-(Cyclohexylthio)-6-(trifluoromethyl)pyridin-3-yl)methyl)-2-cyclopentyl-2-(3-fluoro-4-(methylsulfonamido)phenyl)acetamide]	inhibition at 1 µM [2, 5]: 0%; inhibition at 5 µM [2, 5]: 27%; inhibition at 10 µM [2, 5]: 46%
7.69	7.05	6.02	CC1CCN(c2nc(C(F)(F)F)ccc2CNC(=O)C(c2ccc(NS(C)(=O)=O)c(F)c2)C2CCCC2)CC1 (stereo not shown) [Example 21, 2-Cyclopentyl-2-(3-fluoro-4-(methylsulfonamido)phenyl)-N-((2-(4-methylpiperidin-1-yl)-6-(trifluoromethyl)pyridin-3-yl)methyl)acetamide]	–
7.46	7.18	–	CC(C)(C(=O)NCc1ccc(C(F)(F)F)nc1SC1CCCCC1)c1ccc(NS(C)(=O)=O)c(F)c1 [Example 6, N-((2-(Cyclohexylthio)-6-(trifluoromethyl)pyridin-3-yl)methyl)-2-(3-fluoro-4-(methylsulfonamido)phenyl)-2-methylpropanamide]	inhibition at 0.1 µM ([2]; @ 0.1 μM, read-out: inhibition (in percent), Human following pH-stimulus): 4%; inhibition at 1 µM [2, 5]: 20%; inhibition at 5 µM [2, 5]: 42%; inhibition at 10 µM [2, 5]: 54%
–	7.51	6.93	CC1CCN(c2nc(C(F)(F)F)ccc2CNC(=O)C(c2ccc(NS(C)(=O)=O)c(F)c2)C2CCCCC2)CC1 (stereo not shown) [Example 1, 2-Cyclohexyl-2-(3-fluoro-4-(methylsulfonamido)phenyl)-N-((2-(4-methylpiperidin-1-yl)-6-(trifluoromethyl)pyridin-3-yl)methyl)acetamide]	–
–	7.20	5.80	CS(=O)(=O)Nc1ccc(C(C(=O)NCc2ccc(C(F)(F)F)nc2SC2CCCCC2)c2ccccc2)cc1F (stereo not shown) [Example 4, N-((2-(Cyclohexylthio)-6-(trifluoromethyl)pyridin-3-yl)methyl)-2-(3-fluoro-4-(methylsulfonamido)phenyl)-2-phenylacetamide]	–
